In US20260042755A1, “GPR6 INVERSE AGONISTS” (MapLight Therapeutics, Inc., priority 2022, published 2026) one finds IC50 data, which are given here for 26 compounds.

A value given as a limit tells only on which side of the number the result lay.

For one test, the target named is T1, GPR6 (Homo sapiens, UniProt P46095).
T1 construct: expressed in transfected cells; host or cells: CHO cells
Put plainly: GPR6 antagonist functional cAMP assay (LANCE Ultra cAMP TR-FRET, CHO cells stably expressing GPR6). It counts as cell-based. The conditions noted are these: CHO cells stably expressing GPR6, cAMP assay (Example 24). In outline:
(§1)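 cAMP quantified by TR-FRET immunoassay after 45 min compound treatment at 37° C of CHO cells stably expressing GPR3 or GPR6, in PDE-inhibitor (Ro 20-1724, 150 μM) buffer with 0.1% BSA. Data scaled between DMSO (0%) and reference compounds (100%); antagonist IC50 by 4-parameter logistic fit.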
On the technique in general: cAMP levels reflect the balance of adenylyl cyclase and phosphodiesterase activity.

A further test deals with T2, GPR3 (Homo sapiens, UniProt P46089).
T2 construct: expressed in transfected cells; host or cells: CHO cells
Briefly: GPR3 antagonist functional cAMP assay (LANCE Ultra cAMP TR-FRET, CHO cells stably expressing GPR3). In kind it is cell-based. The following applies: CHO cells stably expressing GPR3, cAMP assay (Example 24). In outline:
as §1

T1 sequence (P46095 whole entry): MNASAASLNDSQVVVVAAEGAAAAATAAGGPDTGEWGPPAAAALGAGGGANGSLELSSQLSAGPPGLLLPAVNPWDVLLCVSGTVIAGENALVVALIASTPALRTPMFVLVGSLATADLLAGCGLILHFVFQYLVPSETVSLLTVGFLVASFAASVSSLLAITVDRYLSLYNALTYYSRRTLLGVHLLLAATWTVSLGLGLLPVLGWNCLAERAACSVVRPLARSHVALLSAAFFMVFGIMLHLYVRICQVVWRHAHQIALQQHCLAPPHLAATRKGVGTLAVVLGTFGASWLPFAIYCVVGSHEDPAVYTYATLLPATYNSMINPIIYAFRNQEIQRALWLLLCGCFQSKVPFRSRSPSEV
T2 sequence (P46089 whole entry, species assumed): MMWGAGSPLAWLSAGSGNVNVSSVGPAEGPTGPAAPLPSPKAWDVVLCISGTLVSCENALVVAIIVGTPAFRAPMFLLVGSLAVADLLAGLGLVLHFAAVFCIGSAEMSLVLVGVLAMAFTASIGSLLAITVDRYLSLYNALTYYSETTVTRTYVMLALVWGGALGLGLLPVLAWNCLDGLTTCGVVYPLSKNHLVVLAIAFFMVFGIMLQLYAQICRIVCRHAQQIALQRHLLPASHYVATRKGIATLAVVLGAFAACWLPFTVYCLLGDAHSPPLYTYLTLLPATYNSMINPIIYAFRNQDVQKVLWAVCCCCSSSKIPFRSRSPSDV

A word on the IC50: it is the concentration at which inhibition is half-maximal. Lower therefore signals greater potency in that assay. For the compound `CC(=O)N1CCc2nc(N3CCC(Oc4ccc(F)cc4C)CC3)c(-c3cnn(C)c3)nc2C1` [Compound 432, 1-{2-[4-(4-fluoro-2-methylphenoxy)piperidin-1-yl]-3-(1-methyl-1H-pyrazol-4-yl)-5H,6H,7H,8H-pyrido[3,4-b]pyrazin-6-yl}ethan-1-one], the IC50 on GPR6 and at GPR3 was 1000 to 30000 nM in each case.

For the compound `CNc1cc2nc(N3CCC(Oc4ccc(F)cc4F)CC3)c(-c3cnn(C)c3)nc2cn1` [Compound 433, 2-(4-(2,4-difluorophenoxy)piperidin-1-yl)-N-methyl-3-(1-methyl-1H-pyrazol-4-yl)pyrido[3,4-b]pyrazin-7-amine], the IC50 against GPR6 and at GPR3 was 1000 to 30000 nM each time.

For the compound `Cn1cc(-c2nc3cnc(C(C)(O)C(C)(C)O)cc3nc2N2CCC(Oc3ccc(F)cc3F)CC2)cn1` (stereo not shown) [Compound 434, 2-(2-(4-(2,4-difluorophenoxy)piperidin-1-yl)-3-(1-methyl-1H-pyrazol-4-yl)pyrido[3,4-b]pyrazin-7-yl)-3-methylbutane-2,3-diol], the half-maximal inhibitory concentration (IC50) lay within 100 to 1000 nM against GPR6 and 1000 to 30000 nM against GPR3.

For `CC(=O)N1CCc2nc(N3CCC(Oc4ccc(F)cc4F)CC3)c(-c3ccnc(C)n3)nc2C1` [Compound 435, 1-{2-[4-(2,4-difluorophenoxy)piperidin-1-yl]-3-(2-methylpyrimidin-4-yl)-5H,6H,7H,8H-pyrido[3,4-b]pyrazin-6-yl}ethan-1-one], the values for the IC50 on GPR6 and on GPR3 were 100 to 1000 nM and 1000 to 30000 nM, respectively.

Regarding `Cn1cc(-c2nc3cncc(C#N)c3nc2N2CCC(Oc3ccc(F)cc3F)CC2)cn1` [Compound 436, 2-[4-(2,4-difluorophenoxy)piperidin-1-yl]-3-(1-methyl-1H-pyrazol-4-yl)pyrido[3,4-b]pyrazine-8-carbonitrile], the IC50 at GPR6 and on GPR3 was 1000 to 30000 nM each time.

With `COCC(O)c1cc2nc(N3CCC(Oc4ccc(F)cc4F)CC3)c(-c3cnn(C)c3)nc2cn1` (stereo not shown) [Compound 437, 1-(2-(4-(2,4-difluorophenoxy)piperidin-1-yl)-3-(1-methyl-1H-pyrazol-4-yl)pyrido[3,4-b]pyrazin-7-yl)-2-methoxyethan-1-ol], the 50% inhibitory concentration (IC50) against GPR6 is 100 to 1000 nM; against GPR3, 1000 to 30000 nM.

In the case of `COC(CO)c1cc2nc(N3CCC(Oc4ccc(F)cc4F)CC3)c(-c3cnn(C)c3)nc2cn1` (stereo not shown) [Compound 438, 2-(2-(4-(2,4-difluorophenoxy)piperidin-1-yl)-3-(1-methyl-1H-pyrazol-4-yl)pyrido[3,4-b]pyrazin-7-yl)-2-methoxyethan-1-ol], the half-maximal inhibitory concentration (IC50) against GPR6 fell in the range of 100 to 1000 nM; against GPR3, 1000 to 30000 nM.

Turning to `CC(=O)N1CCc2nc(N3CCC(Oc4ccc(F)cc4F)CC3)c(-c3cnn(CF)c3)nc2C1` [Compound 439, 1-{2-[4-(2,4-difluorophenoxy)piperidin-1-yl]-3-[1-(fluoromethyl)-1H-pyrazol-4-yl]-5H,6H,7H,8H-pyrido[3,4-b]pyrazin-6-yl}ethan-1-one], the half-inhibitory concentration (IC50) against GPR6 was less than 100 nM; on GPR3, 1000 to 30000 nM.

Take `CCn1cc(-c2nc3cnc(N)cc3nc2N2CCC(Oc3cc(Cl)ccc3Cl)CC2)cn1` [Compound 440, 2-[4-(2,5-dichlorophenoxy)piperidin-1-yl]-3-(1-ethyl-1H-pyrazol-4-yl)pyrido[3,4-b]pyrazin-7-amine]: the IC50 at GPR6 and against GPR3 was 1000 to 30000 nM in each case.

As to `CCn1cc(-c2nc3cnc(C(O)C(C)(C)O)cc3nc2N2CCC(Oc3cc(Cl)ccc3Cl)CC2)cn1` (stereo not shown) [Compound 441, 1-{2-[4-(2,5-dichlorophenoxy)piperidin-1-yl]-3-(1-ethyl-1H-pyrazol-4-yl)pyrido[3,4-b]pyrazin-7-yl}-2-methylpropane-1,2-diol], the IC50 against GPR6 is 100 to 1000 nM; against GPR3, 1000 to 30000 nM.

With `CNC(CO)c1cc2nc(N3CCC(Oc4ccc(F)cc4F)CC3)c(-c3cnn(C)c3)nc2cn1` (stereo not shown) [Compound 442, 2-{2-[4-(2,4-difluorophenoxy)piperidin-1-yl]-3-(1-methyl-1H-pyrazol-4-yl)pyrido[3,4-b]pyrazin-7-yl}-2-(methylamino)ethan-1-ol], the IC50 against GPR6 and against GPR3 was 1000 to 30000 nM in each case.

In the case of `Cn1cc(-c2nc3cnc(N)cc3nc2N2CCC(Oc3cc(Cl)ccc3Cl)CC2)cn1` [Compound 443, 2-[4-(2,5-dichlorophenoxy)piperidin-1-yl]-3-(1-methyl-1H-pyrazol-4-yl)pyrido[3,4-b]pyrazin-7-amine], the 50% inhibitory concentration (IC50) against GPR6 and on GPR3 was 1000 to 30000 nM in each case.

With `CC(=O)N1CCc2nc(N3CCC(Oc4ccc(F)cc4F)CC3)c(-c3cncc(C)n3)nc2C1` [Compound 444, 1-{2-[4-(2,4-difluorophenoxy)piperidin-1-yl]-3-(6-methylpyrazin-2-yl)-5H,6H,7H,8H-pyrido[3,4-b]pyrazin-6-yl}ethan-1-one], the IC50 on GPR6 and on GPR3 was 1000 to 30000 nM each time.

`Cn1cc(-c2nc3cn(C)c(=O)cc3nc2N2CCC(Oc3ccc(F)cc3F)CC2)cn1` [Compound 447, 2-[4-(2,4-difluorophenoxy)piperidin-1-yl]-6-methyl-3-(1-methyl-1H-pyrazol-4-yl)-6H,7H-pyrido[3,4-b]pyrazin-7-one]: the IC50 against GPR6 and against GPR3 was 1000 to 30000 nM each time.

On to `CCn1ccc(-c2nc3c(nc2N2CCC(Oc4ccc(F)cc4F)CC2)CCN(C(C)=O)C3)n1` [Compound 448, 1-{2-[4-(2,4-difluorophenoxy)piperidin-1-yl]-3-(1-ethyl-1H-pyrazol-3-yl)-5H,6H,7H,8H-pyrido[3,4-b]pyrazin-6-yl}ethan-1-one], for which the IC50 against GPR6 was in the range of 100 to 1000 nM; against GPR3, 1000 to 30000 nM.

In the case of `Cn1cc(-c2nc3cnc(N4CCOCC4)cc3nc2N2CCC(Oc3ccc(F)cc3F)CC2)cn1` [Compound 449, 4-{2-[4-(2,4-difluorophenoxy)piperidin-1-yl]-3-(1-methyl-1H-pyrazol-4-yl)pyrido[3,4-b]pyrazin-7-yl}morpholine], the half-maximal inhibitory concentration (IC50) on GPR6 and on GPR3 was 1000 to 30000 nM in each case.

Turning to `COC1CN(c2cc3nc(N4CCC(Oc5ccc(F)cc5F)CC4)c(-c4cnn(C)c4)nc3cn2)C1` [Compound 450, 4-(2,4-difluorophenoxy)-1-[7-(3-methoxyazetidin-1-yl)-3-(1-methyl-1H-pyrazol-4-yl)pyrido[3,4-b]pyrazin-2-yl]piperidine], the IC50 on GPR6 and against GPR3 was 1000 to 30000 nM each time.

Consider `CC(=O)N1CCc2nc(N3CC=CC3)c(-c3cnn(C)c3)nc2C1` [Compound 451, 1-[2-(2,5-dihydro-1H-pyrrol-1-yl)-3-(1-methyl-1H-pyrazol-4-yl)-5H,6H,7H,8H-pyrido[3,4-b]pyrazin-6-yl]ethan-1-one], for which the IC50 is not below 30000 nM against GPR6 and 1000 to 30000 nM on GPR3.

For the compound `COc1ccc(OC2CCN(c3nc4c(nc3-c3cnn(C)c3)CN(C(C)=O)CC4)CC2)c(F)c1` [Compound 452, 1-{2-[4-(2-fluoro-4-methoxyphenoxy)piperidin-1-yl]-3-(1-methyl-1H-pyrazol-4-yl)-5H,6H,7H,8H-pyrido[3,4-b]pyrazin-6-yl}ethan-1-one], the half-maximal inhibitory concentration (IC50) on GPR6 fell in the range of 100 to 1000 nM; at GPR3, 1000 to 30000 nM.

Take `CC(=O)N1CCc2nc(N3CCC(Oc4ccc(F)c(F)c4)CC3)c(-c3cnn(C)c3)nc2C1` [Compound 453, 1-{2-[4-(3,4-difluorophenoxy)piperidin-1-yl]-3-(1-methyl-1H-pyrazol-4-yl)-5H,6H,7H,8H-pyrido[3,4-b]pyrazin-6-yl}ethan-1-one]: the IC50 at GPR6 and on GPR3 was 1000 to 30000 nM in each case.

In the case of `CC(=O)N1CCc2nc(N3CCC(Oc4c(F)cccc4F)CC3)c(-c3cnn(C)c3)nc2C1` [Compound 454, 1-{2-[4-(2,6-difluorophenoxy)piperidin-1-yl]-3-(1-methyl-1H-pyrazol-4-yl)-5H,6H,7H,8H-pyrido[3,4-b]pyrazin-6-yl}ethan-1-one], the half-inhibitory concentration (IC50) on GPR6 and against GPR3 was 1000 to 30000 nM each time.

For `CC(=O)N1CCc2nc(N3CCC(Oc4c(F)ccc(F)c4F)CC3)c(-c3cnn(C)c3)nc2C1` [Compound 455, 1-[3-(1-methyl-1H-pyrazol-4-yl)-2-[4-(2,3,6-trifluorophenoxy)piperidin-1-yl]-5H,6H,7H,8H-pyrido[3,4-b]pyrazin-6-yl]ethan-1-one], the IC50 against GPR6 and against GPR3 was 1000 to 30000 nM each time.

Turning to `CC(=O)N1CCc2nc(N3CCC(Oc4ccc(Cl)cc4F)CC3)c(-c3cnn(C)c3)nc2C1` [Compound 456, 1-{2-[4-(4-chloro-2-fluorophenoxy)piperidin-1-yl]-3-(1-methyl-1H-pyrazol-4-yl)-5H,6H,7H,8H-pyrido[3,4-b]pyrazin-6-yl}ethan-1-one], the concentration for half-maximal inhibition (IC50) against GPR6 lay within 100 to 1000 nM; on GPR3, 1000 to 30000 nM.

Turning to `CC(=O)N1CCc2nc(N3CCC(Oc4cc(Cl)ccc4F)CC3)c(-c3cnn(C)c3)nc2C1` [Compound 457, 1-{2-[4-(5-chloro-2-fluorophenoxy)piperidin-1-yl]-3-(1-methyl-1H-pyrazol-4-yl)-5H,6H,7H,8H-pyrido[3,4-b]pyrazin-6-yl}ethan-1-one], the values for the concentration for half-maximal inhibition (IC50) against GPR6 and on GPR3 were 100 to 1000 nM and 1000 to 30000 nM, respectively.

In the case of `CC(=O)N1CCc2nc(N3CCC(Oc4cc(Cl)c(F)cc4F)CC3)c(-c3cnn(C)c3)nc2C1` [Compound 458, 1-{2-[4-(5-chloro-2,4-difluorophenoxy)piperidin-1-yl]-3-(1-methyl-1H-pyrazol-4-yl)-5H,6H,7H,8H-pyrido[3,4-b]pyrazin-6-yl}ethan-1-one], the IC50 against GPR6 lay within 100 to 1000 nM; against GPR3, 1000 to 30000 nM.

On to `Cn1cc(-c2nc3cncc(N)c3nc2N2CCC(Oc3ccc(F)cc3F)CC2)cn1` [Compound 459, 2-[4-(2,4-difluorophenoxy)piperidin-1-yl]-3-(1-methyl-1H-pyrazol-4-yl)pyrido[3,4-b]pyrazin-8-amine], for which the results for the IC50 on GPR6 and against GPR3 were 100 to 1000 nM and 1000 to 30000 nM, respectively.
